Reference: patent US8735421B2, “Imidazoquinolinyl sulfonamides” (3M Innovative Properties Company, priority 2003, dated 2014)
Counter-ions that a name gives are not always drawn.

melting point [°C]	SMILES
193 to 195	CCOCc1nc2c(N)nc3ccccc3c2n1CC(C)(C)CS(=O)(=O)N(C)C (as salt: hydrochloride) [Example 25, N,N-Dimethyl 3-(4-amino-2-ethoxymethyl-1H-imidazo[4,5-c]quinolin-1-yl)-2,2-dimethylpropane-1-sulfonamide]
225 to 227	CCc1nc2c(N)nc3ccccc3c2n1CCCCS(N)(=O)=O (as salt: trifluoroacetate) [Example 6, 4-(4-Amino-2-ethyl-1H-imidazo[4,5-c]quinolin-1-yl)butane-1-sulfonamide]
225 to 228	CCc1nc2c(N)nc3ccccc3c2n1CCCS(=O)(=O)NC [Example 1, N-Methyl 3-(4-amino-2-ethyl-1H-imidazo[4,5-c]quinolin-1-yl)propane-1-sulfonamide]
209 to 211	CCc1nc2c(N)nc3ccccc3c2n1CCCS(=O)(=O)N(C)C [Example 2, N,N-Dimethyl 3-(4-amino-2-ethyl-1H-imidazo[4,5-c]quinolin-1-yl)propane-1-sulfonamide]
193 to 195	CCc1nc2c(N)nc3ccccc3c2n1CCCCS(=O)(=O)N(C)C [Example 3, N,N-Dimethyl 4-(4-amino-2-ethyl-1H-imidazo[4,5-c]quinolin-1-yl)butane-1-sulfonamide]
190 to 191	CCc1nc2c(N)nc3ccccc3c2n1CCCCS(=O)(=O)NC [Example 4, N-Methyl 4-(4-amino-2-ethyl-1H-imidazo[4,5-c]quinolin-1-yl)butane-1-sulfonamide]
176 to 177	CCc1nc2c(N)nc3ccccc3c2n1CCCCS(=O)(=O)NCc1ccc(OC)cc1 [Example 5, N-(4-Methoxybenzyl) 4-(4-amino-2-ethyl-1H-imidazo[4,5-c]quinolin-1-yl)butane-1-sulfonamide]
155 to 157	CN(C)S(=O)(=O)CCCn1cnc2c(N)nc3ccccc3c21 [Example 7, N,N-Dimethyl 3-(4-amino-1H-imidazo[4,5-c]quinolin-1-yl)propane-1-sulfonamide]
229 to 230	CCOCc1nc2c(N)nc3ccccc3c2n1CCCCS(=O)(=O)Nc1ccc(OC)cc1 [Example 8, N-(4-Methoxyphenyl) 4-(4-amino-2-ethoxymethyl-1H-imidazo[4,5-c]quinolin-1-yl)butane-1-sulfonamide]
170 to 172	CCOCc1nc2c(N)nc3ccccc3c2n1CCCCS(=O)(=O)NC [Example 10, N-Methyl 4-(4-amino-2-ethoxymethyl-1H-imidazo[4,5-c]quinolin-1-yl)butane-1-sulfonamide]
173 to 174	CCOCc1nc2c(N)nc3ccccc3c2n1CCCCS(=O)(=O)N(C)C [Example 11, N,N-Dimethyl 4-(4-amino-2-ethoxymethyl-1H-imidazo[4,5-c]quinolin-1-yl)butane-1-sulfonamide]
185 to 188	CCOCc1nc2c(N)nc3ccccc3c2n1CCCCS(=O)(=O)N1CCCCC1 [Example 12, 2-Ethoxymethyl-1-[4-(piperidine-1-sulfonyl)butyl]-1H-imidazo[4,5-c]quinoline-4-amine]
197 to 198	CCOCc1nc2c(N)nc3ccccc3c2n1CCCCS(=O)(=O)NC1CCCCC1 [Example 13, N-Cyclohexyl 4-(4-amino-2-ethoxymethyl-1H-imidazo[4,5-c]quinolin-1-yl)butane-1-sulfonamide]
148 to 149	CCCCNS(=O)(=O)CCCCn1c(COCC)nc2c(N)nc3ccccc3c21 [Example 14, N-Butyl 4-(4-amino-2-ethoxymethyl-1H-imidazo[4,5-c]quinolin-1-yl)butane-1-sulfonamide]
61 to 64	CCOCc1nc2c(N)nc3ccccc3c2n1CCOCCCS(=O)(=O)N(C)C [Example 15, N,N-Dimethyl 3-[2-(4-amino-2-ethoxymethyl-1H-imidazo[4,5-c]quinolin-1-yl)ethoxy]propane-1-sulfonamide]
175 to 179	CCOCc1nc2c(N)nc3ccccc3c2n1CCCCCS(=O)(=O)NC [Example 16, N-Methyl 5-(4-amino-2-ethoxymethyl-1H-imidazo[4,5-c]quinolin-1-yl)pentane-1-sulfonamide]
138 to 142	CCOCc1nc2c(N)nc3ccccc3c2n1CCCCCS(=O)(=O)N(C)C [Example 17, N,N-Dimethyl 5-(4-amino-2-ethoxymethyl-1H-imidazo[4,5-c]quinolin-1-yl)pentane-1-sulfonamide]
188 to 192	CCOCc1nc2c(N)nc3c(c2n1CCCCS(=O)(=O)NC)CCCC3 [Example 18, N-Methyl 4-(4-amino-2-ethoxymethyl-6,7,8,9-tetrahydro-1H-imidazo[4,5-c]quinolin-1-yl)butane-1-sulfonamide]
165 to 167	CCOCc1nc2c(N)nc3c(c2n1CCCCS(=O)(=O)N(C)C)CCCC3 [Example 19, N,N-Dimethyl 4-(4-amino-2-ethoxymethyl-6,7,8,9-tetrahydro-1H-imidazo[4,5-c]quinolin-1-yl)butane-1-sulfonamide]

melting point [°C]	SMILES
101	CCOCc1nc2c(N)nc3ccccc3c2n1CCCCS(=O)(=O)NCc1ccc(OC)cc1 [Example 20, N-(4-Methoxybenzyl) 4-(4-amino-2-ethoxymethyl-1H-imidazo[4,5-c]quinolin-1-yl)butane-1-sulfonamide]
155 to 158	CCOCc1nc2c(N)nc3ccccc3c2n1CCCCS(N)(=O)=O [Example 21, 4-(4-Amino-2-ethoxymethyl-1H-imidazo[4,5-c]quinolin-1-yl)butane-1-sulfonamide]
177 to 178	CCOCc1nc2c(N)nc3ccccc3c2n1CCCCCS(=O)(=O)NCc1ccc(OC)cc1 [Example 22, N-(4-Methoxybenzyl) 5-(4-amino-2-ethoxymethyl-1H-imidazo[4,5-c]quinolin-1-yl)pentane-1-sulfonamide]
176 to 178	CCOCc1nc2c(N)nc3ccccc3c2n1CCCCCS(N)(=O)=O [Example 23, 5-(4-Amino-2-ethoxymethyl-1H-imidazo[4,5-c]quinolin-1-yl)pentane-1-sulfonamide]
224 to 227	CCOCc1nc2c(N)nc3c(c2n1CCCCS(N)(=O)=O)CCCC3 [Example 24, 4-(4-Amino-2-ethoxymethyl-6,7,8,9-tetrahydro-1H-imidazo[4,5-c]quinolin-1-yl)butane-1-sulfonamide]
127 to 128	CCCc1nc2c(N)nc(C)c(C)c2n1CCCCS(=O)(=O)N(C)C [Example 26, N,N-Dimethyl 4-(4-Amino-6,7-dimethyl-2-propyl-1H-imidazo[4,5-c]pyridin-1-yl)butane-1-sulfonamide]
164 to 166	CCCc1nc2c(N)nc(C)c(C)c2n1CCCCS(=O)(=O)NC [Example 27, N-Methyl 4-(4-Amino-6,7-dimethyl-2-propyl-1H-imidazo[4,5-c]pyridin-1-yl)butane-1-sulfonamide]
158 to 160	CCOCc1nc2c(N)nc(C)c(C)c2n1CCCCS(=O)(=O)N(C)C [Example 28, N,N-Dimethyl 4-(4-Amino-6,7-dimethyl-2-ethoxymethyl-1H-imidazo[4,5-c]pyridin-1-yl)butane-1-sulfonamide]
148 to 150	CCOCc1nc2c(N)nc3cccnc3c2n1CCCCS(=O)(=O)N(C)C [Example 29, N,N-Dimethyl 4-(4-Amino-2-ethoxymethyl-1H-imidazo[4,5-c][1,5]naphthyridin-1-yl)butane-1-sulfonamide]
162 to 163	CCCc1nc2c(N)nc3cccnc3c2n1CCCCS(=O)(=O)N(C)C [Example 30, N,N-Dimethyl 4-(4-Amino-2-propyl-1H-imidazo[4,5-c][1,5]naphthyridin-1-yl)butane-1-sulfonamide]
167 to 169	CCCc1nc2c(N)nc(C)c(C)c2n1CCCCS(N)(=O)=O [Example 31, 4-(4-Amino-6,7-dimethyl-2-propyl-1H-imidazo[4,5-c]pyridin-1-yl)butane-1-sulfonamide]
148 to 150	CCOCc1nc2c(N)nc3cccnc3c2n1CCCCS(=O)(=O)NC [Example 32, N-Methyl 4-(4-Amino-2-ethoxymethyl-1H-imidazo[4,5-c][1,5]naphthyridin-1-yl)butane-1-sulfonamide]
174 to 175	CCCc1nc2c(N)nc3cccnc3c2n1CCCCS(=O)(=O)NC [Example 33, N-Methyl 4-(4-Amino-2-propyl-1H-imidazo[4,5-c][1,5]naphthyridin-1-yl)butane-1-sulfonamide]
194.5 to 196	CCOCc1nc2c(N)nc(C)c(C)c2n1CCCCS(=O)(=O)NC [Example 34, N-Methyl 4-(4-Amino-6,7-dimethyl-2-ethoxymethyl-1H-imidazo[4,5-c]pyridin-1-yl) butane-1-sulfonamide]
200 to 201.5	CCOCc1nc2c(N)nc(C)c(C)c2n1CCCCS(N)(=O)=O [Example 35, 4-(4-Amino-2-ethoxymethyl-6,7-dimethyl-1H-imidazo[4,5-c]pyridin-1-yl)butane-1-sulfonamide]
161 to 163	CCOCc1nc2c(N)nc3ccccc3c2n1CC(C)(C)CS(=O)(=O)NC [Example 36, 3-[4-Amino-2-(ethoxymethyl)-1H-imidazo[4,5-c]quinolin-1-yl]-N,2,2-trimethylpropane-1-sulfonamide]
146 to 147	CCOCc1nc2c(N)nc3ccccc3c2n1CCCCS(=O)(=O)NC(C)C [Example 37, 4-[4-Amino-2-(ethoxymethyl)-1H-imidazo[4,5-c]quinolin-1-yl]-N-isopropylbutane-1-sulfonamide]
203 to 205	CCOCc1nc2c(N)nc3c(c2n1CCCCCS(N)(=O)=O)CCCC3 [Example 38, 5-[4-amino-2-(ethoxymethyl)-6,7,8,9-tetrahydro-1H-imidazo[4,5-c]quinolin-1-yl]pentane-1-sulfonamide]
166 to 170	CCc1nc2c(N)nc3c(c2n1CCCCS(=O)(=O)NC)CCCC3 [Example 39, N-Methyl 4-(4-amino-2-ethyl-6,7,8,9-tetrahydro-1H-imidazo[4,5-c]quinolin-1-yl)butane-1-sulfonamide]
